Experimental data from patent publication US9598457B2, “Substituted nucleosides, nucleotides and analogs thereof” (Alios BioPharma, Inc., priority 2012, dated 2017).
pEC50, pIC50: −log10 of the molar value.

The molecules below were run against NS5B570-Con1 (Delta-21) (Hepatitis C virus genotype 1b, UniProt Q9WMX2) (assay: biochemical). Details: not given.
Parameters: species or system HCV Con-1 strain

SMILES	pIC50
C[C@@]1(O)[C@H](F)[C@@H](COP(=O)(O)OP(=O)(O)OP(=O)(O)O)O[C@H]1n1cnc2c(=O)[nH]c(N)nc21 [Compound 15]	> 6.00

What follows are molecules tested against human mitochondrial RNA polymerase (Homo sapiens, UniProt O00411) (assay: DdRp assay: incorporation of nucleotides by human mitochondrial RNA polymerase (HMRP)). Details: 100 μM of each NTP, single turnover, 30° C., 1 minute; template for GTP analogs.
Sequence of human mitochondrial RNA polymerase (O00411 42-1230): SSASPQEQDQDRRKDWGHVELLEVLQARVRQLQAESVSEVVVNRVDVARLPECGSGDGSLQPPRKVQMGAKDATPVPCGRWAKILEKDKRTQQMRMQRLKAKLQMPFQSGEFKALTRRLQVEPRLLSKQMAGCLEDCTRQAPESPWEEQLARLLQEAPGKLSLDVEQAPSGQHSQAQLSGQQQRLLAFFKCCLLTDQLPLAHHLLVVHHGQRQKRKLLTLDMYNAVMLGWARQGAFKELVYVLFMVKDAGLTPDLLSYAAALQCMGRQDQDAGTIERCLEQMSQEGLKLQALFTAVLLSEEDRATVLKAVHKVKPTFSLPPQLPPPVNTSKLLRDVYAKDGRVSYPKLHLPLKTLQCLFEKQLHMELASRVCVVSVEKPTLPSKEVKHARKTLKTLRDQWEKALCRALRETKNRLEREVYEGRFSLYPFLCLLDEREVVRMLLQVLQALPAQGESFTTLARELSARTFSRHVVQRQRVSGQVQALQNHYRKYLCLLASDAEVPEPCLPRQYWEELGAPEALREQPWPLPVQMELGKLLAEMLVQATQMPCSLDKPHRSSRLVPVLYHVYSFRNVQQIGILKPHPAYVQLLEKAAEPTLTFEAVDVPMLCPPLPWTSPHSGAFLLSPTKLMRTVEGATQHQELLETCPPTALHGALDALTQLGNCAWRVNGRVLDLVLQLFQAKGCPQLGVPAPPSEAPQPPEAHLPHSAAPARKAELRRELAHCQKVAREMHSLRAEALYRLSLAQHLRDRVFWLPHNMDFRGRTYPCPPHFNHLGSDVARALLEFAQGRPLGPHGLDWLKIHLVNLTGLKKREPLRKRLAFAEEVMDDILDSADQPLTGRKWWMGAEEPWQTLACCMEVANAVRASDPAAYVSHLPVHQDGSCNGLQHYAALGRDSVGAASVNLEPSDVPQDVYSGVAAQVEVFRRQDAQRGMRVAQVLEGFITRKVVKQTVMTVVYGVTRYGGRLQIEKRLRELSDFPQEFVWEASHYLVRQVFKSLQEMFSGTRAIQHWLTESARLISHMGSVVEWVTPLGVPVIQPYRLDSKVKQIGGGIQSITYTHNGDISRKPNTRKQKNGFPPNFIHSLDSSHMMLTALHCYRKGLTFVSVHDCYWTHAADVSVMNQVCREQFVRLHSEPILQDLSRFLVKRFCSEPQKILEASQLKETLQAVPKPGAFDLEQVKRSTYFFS

SMILES	incorporation by human mitochondrial RNA polymerase (product band, FIG. 10)
Nc1ncnc2c1ncn2[C@@H]1O[C@H](COP(=O)(O)OP(=O)(O)OP(=O)(O)O)[C@@H](O)[C@H]1O [ATP]	poor substrate for incorporation

What follows are molecules tested on Huh-7 cells containing the self-replicating, subgenomic HCV replicon (assay: HCV replicon assay (luciferase reporter)). Details: Hepatitis C virus, Huh-7, 72 h.
Format: cell-based

SMILES	pEC50
CCOc1nc(N)nc2c1ncn2[C@@H]1O[C@H](COP(=O)(N[C@@H](C)C(=O)OCC(C)(C)C)Oc2ccccc2Cl)[C@@H](F)[C@@]1(C)O (stereo partly drawn) [Compound 2, (2S)-neopentyl 2-(((((2R,3R,4S,5R)-5-(2-amino-6-ethoxy-1H-purin-9(6H)-yl)-3-fluoro-4-hydroxy-4-methyltetrahydrofuran-2-yl)methoxy)(2-chlorophenoxy)phosphoryl)amino)propanoate]	> 6.00
CCOc1nc(N)nc2c1ncn2[C@@H]1O[C@H](COP(=O)(N[C@@H](C)C(=O)OC2CCCCC2)Oc2ccc(F)c(Cl)c2)[C@@H](F)[C@@]1(C)O (stereo partly drawn) [Compound 3, (2S)-cyclohexyl 2-(((((2R,3R,4S,5R)-5-(2-amino-6-ethoxy-1H-purin-9(6H)-yl)-3-fluoro-4-hydroxy-4-methyltetrahydrofuran-2-yl)methoxy)(3-chloro-4-fluorophenoxy)phosphoryl)amino)propanoate]	> 6.00
CCOc1nc(N)nc2c1ncn2[C@@H]1O[C@H](COP(=O)(N[C@@H](C)C(=O)OCC(C)(C)C)Oc2ccccc2)[C@@H](F)[C@@]1(C)O (stereo partly drawn) [Compound 4, (2S)-neopentyl 2-(((((2R,3R,4S,5R)-5-(2-amino-6-ethoxy-1H-purin-9(6H)-yl)-3-fluoro-4-hydroxy-4-methyltetrahydrofuran-2-yl)methoxy)(phenoxy)phosphoryl)amino)propanoate]	> 6.00
CCOc1nc(N)nc2c1ncn2[C@@H]1O[C@H](COP(=O)(N[C@@H](C)C(=O)OC2CCCCC2)Oc2ccccc2)[C@@H](F)[C@@]1(C)O (stereo partly drawn) [Compound 5, (2S)-cyclohexyl 2-(((((2R,3R,4S,5R)-5-(2-amino-6-ethoxy-1H-purin-9(6H)-yl)-3-fluoro-4-hydroxy-4-methyltetrahydrofuran-2-yl)methoxy)(phenoxy)phosphoryl)amino)propanoate]	> 6.00
C[C@H](NP(=O)(OC[C@H]1O[C@@H](n2cnc3c(=O)[nH]c(N)nc32)[C@](C)(O)[C@@H]1F)Oc1ccccc1Cl)C(=O)OCC(C)(C)C (stereo partly drawn) [Compound 7, (2S)-neopentyl 2-(((((2R,3R,4S,5R)-5-(2-amino-6-oxo-1H-purin-9(6H)-yl)-3-fluoro-4-hydroxy-4-methyltetrahydrofuran-2-yl)methoxy)(2-chlorophenoxy)phosphoryl)amino)propanoate]	4.00 to 5.00
C[C@H](NP(=O)(OC[C@H]1O[C@@H](n2cnc3c(=O)[nH]c(N)nc32)[C@](C)(O)[C@@H]1F)Oc1ccc(F)c(Cl)c1)C(=O)OC1CCCCC1 (stereo partly drawn) [Compound 8, (2S)-cyclohexyl 2-(((((2R,3R,4S,5R)-5-(2-amino-6-oxo-1H-purin-9(6H)-yl)-3-fluoro-4-hydroxy-4-methyltetrahydrofuran-2-yl)methoxy)(3-chloro-4-fluorophenoxy)phosphoryl)amino)propanoate]	4.00 to 5.00
C[C@H](NP(=O)(OC[C@H]1O[C@@H](n2cnc3c(=O)[nH]c(N)nc32)[C@](C)(O)[C@@H]1F)Oc1ccccc1)C(=O)OC1CCCCC1 (stereo partly drawn) [Compound 9, (2S)-cyclohexyl 2-(((((2R,3R,4S,5R)-5-(2-amino-6-oxo-1H-purin-9(6H)-yl)-3-fluoro-4-hydroxy-4-methyltetrahydrofuran-2-yl)methoxy)(phenoxy)phosphoryl)amino)propanoate]	5.00 to 6.00
CCOc1nc(N)nc2c1ncn2[C@@H]1O[C@H](COP(=O)(N[C@@H](C)C(=O)OC(C)C)Oc2ccccc2)[C@@H](F)[C@@]1(C)O (stereo partly shown) [Compound 10]	> 6.00
CCOc1nc(N)nc2c1ncn2[C@@H]1O[C@H](COP(=S)(N[C@@H](C)C(=O)OC(C)C)Oc2ccccc2)[C@@H](F)[C@@]1(C)O (stereo partly shown) [Compound 11]	4.00 to 5.00
CCOc1nc(N)nc2c1ncn2[C@@H]1O[C@H](COP(=S)(N[C@@H](C)C(=O)OC2CCCCC2)Oc2ccccc2)[C@@H](F)[C@@]1(C)O (stereo partly shown) [Compound 12]	5.00 to 6.00
CCOc1nc(N)nc2c1ncn2[C@@H]1O[C@H](COP(=S)(N[C@@H](C)C(=O)OCC(C)(C)C)Oc2ccccc2)[C@@H](F)[C@@]1(C)O (stereo partly shown) [Compound 13]	5.00 to 6.00

Same assay, conditions: Hepatitis C virus, Huh-7; HCV replicon cells, 72 h, Bright-Glo luciferase; read-out: EC50

SMILES	pEC50
C[C@@]1(O)[C@H](F)[C@@H](CO)O[C@H]1n1cnc2c(=O)[nH]c(N)nc21 [Compound 6, 2-amino-9-((2R,3S,4R,5R)-4-fluoro-3-hydroxy-5-(hydroxymethyl)-3-methyltetrahydrofuran-2-yl)-1H-purin-6(9H)-one]	4.00 to 5.00

These molecules were tested on mitochondrial protein synthesis (COX I relative to SDH A) in HepG2 cells (assay: not given). Details: not given.

SMILES	inhibition of mitochondrial protein synthesis (FIGS. 11A-B)
Cc1cn([C@H]2C=C[C@@H](CO)O2)c(=O)[nH]c1=O [d4T]	found not to inhibit mitochondrial protein synthesis
Nc1ccn([C@H]2CC[C@@H](CO)O2)c(=O)n1 [ddC]	strongly inhibit mitochondrial protein synthesis
